Reference: patent US20240245677A1, “SELECTED COMPOUNDS FOR TARGETED DEGRADATION OF BRD9” (C4 THERAPEUTICS, INC., priority 2021, published 2024)
≈ marks a conversion by molar mass, not a printed value. Read-outs that look alike come from different tables or passages of the source.

Tests used:
[1] = Variable temperature XRPD (VT-XRPD) experiments; format: physicochemical
Description: To investigate form conversion behavior, variable temperature XRPD experiments were conducted for hydrate Pattern A, hydrate Pattern C, hydrate Pattern F and hetero-solvate Pattern L.
Based on DSC and TGA results, variable temperature XRPD was conducted for Pattern A, at different temperatures, including 25° C., 110° C. and 25° C.
Based on DSC and TGA results, variable temperature XRPD was conducted for Pattern B, at different temperatures, including 25° C., 80° C., 130° C. and 25° C. The sample after heating-cooling was placed at 25° C./75% RH condition for 1 day and investigated by XRPD.
Based on DSC and TGA results, variable temperature XRPD was conducted for Pattern C, at different temperatures, including 25° C., 110° C. and 25° C.
Based on DSC and TGA results, variable temperature XRPD was conducted for Pattern F at different temperatures, including 25° C., 110° C. and 25° C. The sample after heating-cooling was placed at 25° C./75% RH condition for 1 day and investigated by XRPD.
Based on DSC and TGA results, variable temperature XRPD was conducted for Pattern L, at different temperatures, including 25° C., 100° C., 140° C., 180° C. and 25° C. The sample after heating-cooling was placed at 25° C./92% RH condition for 24 h and investigated by XRPD.

[2] = Variable humidity XRPD (VH-XRPD) experiments; format: physicochemical
Description: Based on DVS results, variable humidity XRPD was conducted for Pattern A at different humidity conditions, including 40%, 70%, 90%, 70%, 40%, 20%, 0%, 40% RH conditions.
Based on DVS results, variable humidity XRPD was conducted for Pattern N, at different humidity conditions, including 40%, 70%, 90%, 70%, 40%, 20%, 0%, 40% RH conditions.

[3] = Hygroscopicity by DVS at 25° C.; format: physicochemical; settings: for water uptake: DVS 25° C.
Description: Hygroscopicity of Form A and Form N was investigated by DVS at 25° C. […] Form A converted to Form K after the DVS test. Form K is a metastable hydrate. It reverted back to Form A after exposure to ambient condition.
Hygroscopicity of the free base Pattern A* and the urea cocrystal Form P were evaluated by DVS at 25° C.

Photostability study = settings: 1.2 million lux-hrs at 25° C., open container
[4] = Solubility study in aqueous media at 37° C.
[5] = Bulk stability study (1 week stress conditions; drying); settings: one week
[6] = Mouse Hepatocyte Stability Assay; format: in vitro ADME; settings: CD-1, cryopreserved hepatocytes
Description: The metabolic stability of Compound 1 was evaluated using cryopreserved hepatocytes from mice, rats, dogs, cynomolgus monkeys, and humans.
50 μL of 1 mM intermediate solutions for each test compound was prepared by adding 5 μL of 10 mM stock solution to 45 μL of a 1:1 mixture of water and acetonitrile. A 2 μM working stocks for each test compound were prepared in incubation media, InvitroGRO™ KHB (Bio IVT, Westbury, NY, USA), by adding 2 μL of 1 mM intermediate stock to 998 μL of incubation media.
To thaw the hepatocytes, InvitroGRO™ HT thawing medium (BioIVT, Westbury, NY, USA) was prewarmed to 37° C., and 48 mL of warmed thawing medium was transferred to a sterile 50 mL conical tube. The hepatocyte vial was removed from the liquid nitrogen Dewar, and gently thawed in a water bath at 37° C. for 1-2 minutes, then the contents of the vial were emptied into a conical tube with prewarmed InvitroGRO HT medium. 1 mL of prewarmed InvitroGRO HT medium was added to each emptied hepatocyte vial to resuspend any remaining cells, and the contents were pipetted into the hepatocyte suspension. The tube containing the hepatocyte suspension was centrifuged at 50*g for 5 minutes. The supernatant was removed carefully, and the remaining pellet was resuspended by adding 1 mL of incubation media, InvitroGRO KHB, and gently shaking until there were no clumps.
Cell viability was determined using the trypan blue method. 25 μL of hepatocyte cell suspension was added to a trypan blue (TB) solution (containing 775 μL InvitroGRO KHB and 200 μL of Trypan Blue). Cell count was taken using a hemacytometer.
For mouse hepatocytes, 200 μL of hepatocytes (0.8×10^6 cells/mL) were added to the wells of a 48 well plate (Catalog No. 92048, TPP Techno Plastic Products AG, Trasadingen, Switzerland) and pre-incubated for 30 minutes at 37° C. For rat, dog, monkey, […], 200 μL of hepatocytes (2×10^6 cells/mL) were added to the wells of a 48 well plate (Catalog No. 92048, TPP Techno Plastic Products AG, Trasadingen, Switzerland) and pre-incubated for 30 minutes at 37° C.
For all species of hepatocytes, once the pre-incubation period was complete, 200 μL of 2 μM working stock of test compound was added to the wells of the plate, and the plate was vortexed on a Vibramax™ 100 (P/N 544-21200-00, Heidolph Instruments GmbH & Co. KG, Schwabach, Germany) at 500 rpm in a 37° C. CO2 incubator (Model No. 51026280, ThermoFisher Scientific, Waltham, MA, USA). At each time point of 0, 15, 30, 60, 90, and 120 minutes, 50 μL of incubation mixture was precipitated with 200 μL of acetonitrile containing internal standard.
At the end of the experiment, the samples were centrifuged at 4000 rpm for 10 minutes. The supernatant was collected and diluted with an equal amount of water, and vortexed for 5 minutes at 900 rpm in MixMate® (Model No. 5353, Eppendorf SE, Hamburg, Germany).
The supernatant samples were submitted for LC-MS/MS analysis.
Calculations of the results included the following: […]

[7] = pH 6.5
physchem = settings: 37 °C, thermodynamic from solid
[8] = pH 4.5, 50 mM acetate buffer, 24 h

COc1cc(-c2cn(C)c(=O)c(C)c2C)cc(OC)c1CN1CC[C@H](N2CCN(c3ccc(N[C@H]4CCC(=O)NC4=O)cc3F)CC2)C(F)(F)C1 [Pattern A*]
XRPD ([1]; 25° C. (start)): Pattern A
XRPD ([1]; 25° C./50% RH hold 2 h): Pattern A
XRPD ([1]; Cool to 25° C.): Metastable Pattern J
XRPD ([1]; Heat to 110° C.): Metastable Pattern J
XRPD ([2]; 0% RH): Pattern J
XRPD ([2]; 0% RH hold 6 h): Pattern J
XRPD ([2]; 0% RH hold 2 days): Pattern J
XRPD ([2]; 20% RH): Pattern A
XRPD ([2]; 40% RH (after 90% RH, falling)): Pattern A
XRPD ([2]; 40% RH (first step)): Pattern A
XRPD ([2]; 40% RH (last step, after 0% RH)): Pattern A
XRPD ([2]; 70% RH (after 90% RH)): Metastable Pattern K
XRPD ([2]; 70% RH (humidity rising)): Metastable Pattern K
XRPD ([2]; 90% RH): Metastable Pattern K
water uptake from 40% RH to 95% RH ([3]; DVS): 6.0% water uptake from
water uptake ([3]; 95% RH): about 6.0%
1st desorp. (%) ([3]; DVS, 0% RH): 0.0%
2nd sorp. (%) ([3]; DVS, 0% RH): 0.0%
1st desorp. (%) ([3]; DVS, 10% RH): 1.1%
2nd sorp. (%) ([3]; DVS, 10% RH): 1.0%
1st desorp. (%) ([3]; DVS, 20% RH): 1.8%
2nd sorp. (%) ([3]; DVS, 20% RH): 1.5%
1st desorp. (%) ([3]; DVS, 30% RH): 4.5%
2nd sorp. (%) ([3]; DVS, 30% RH): 2.1%
1st desorp. (%) ([3]; DVS, 40% RH): 6.3%
1st sorp. (%) ([3]; DVS, 40% RH): 4.6%
2nd desorp. (%) ([3]; DVS, 40% RH): 6.6%
2nd sorp. (%) ([3]; DVS, 40% RH): 3.6%
1st desorp. (%) ([3]; DVS, 50% RH): 8.5%
1st sorp. (%) ([3]; DVS, 50% RH): 5.2%
2nd desorp. (%) ([3]; DVS, 50% RH): 8.5%
2nd sorp. (%) ([3]; DVS, 50% RH): 5.8%
1st desorp. (%) ([3]; DVS, 60% RH): 9.4%
1st sorp. (%) ([3]; DVS, 60% RH): 6.9%
2nd desorp. (%) ([3]; DVS, 60% RH): 9.4%
2nd sorp. (%) ([3]; DVS, 60% RH): 7.7%
1st desorp. (%) ([3]; DVS, 70% RH): 9.7%
1st sorp. (%) ([3]; DVS, 70% RH): 9.1%
2nd desorp. (%) ([3]; DVS, 70% RH): 9.7%
2nd sorp. (%) ([3]; DVS, 70% RH): 9.3%
1st desorp. (%) ([3]; DVS, 80% RH): 1.0%
1st sorp. (%) ([3]; DVS, 80% RH): 9.8%
2nd desorp. (%) ([3]; DVS, 80% RH): 10.0%
2nd sorp. (%) ([3]; DVS, 80% RH): 9.8%
1st desorp. (%) ([3]; DVS, 90% RH): 10.3%
1st sorp. (%) ([3]; DVS, 90% RH): 10.3%
2nd desorp. (%) ([3]; DVS, 90% RH): 10.3%
2nd sorp. (%) ([3]; DVS, 90% RH): 10.2%
1st desorp. (%) ([3]; DVS, 95% RH): 10.6%
1st sorp. (%) ([3]; DVS, 95% RH): 10.6%
2nd desorp. (%) ([3]; DVS, 95% RH): 10.5%
2nd sorp. (%) ([3]; DVS, 95% RH): 10.5%
degradation after exposure to light (Photostability study): ~1%
Solubility ([4]; FaSSIF-v1 (pH 6.5)): low solubility (close to LOQ)
pH ([4]; FaSSIF-v1, pH 6.5, 2 h): pH: 6.5
Solubility ([4]; FaSSIF-v1, pH 6.5, 2 h, target 10 mg/5 mL, LOQ: 50 μg/mL): <LOQ
XRPD of residual solids ([4]; FaSSIF-v1, pH 6.5, 24 h): No form change
pH ([4]; FaSSIF-v1, pH 6.5, 24 h): pH: 6.5
Solubility ([4]; FaSSIF-v1, pH 6.5, 24 h, target 10 mg/5 mL, LOQ: 50 μg/mL): 80 µg/mL (≈ 113 µM)
pH ([4]; FeSSIF-v1, pH 5.0, 2 h): pH: 5.0
Solubility ([4]; FeSSIF-v1, pH 5.0, 2 h, target 10 mg/5 mL, LOQ: 50 μg/mL): 170 µg/mL (≈ 239 µM)
pH ([4]; FeSSIF-v1, pH 5.0, 24 h): pH: 5.0
Solubility ([4]; FeSSIF-v1, pH 5.0, 24 h, target 10 mg/5 mL, LOQ: 50 μg/mL): 210 µg/mL (≈ 295 µM)
pH ([4]; SGF, pH 1.8, 2 h): pH: 2.4
Solubility ([4]; SGF, pH 1.8, 2 h, target 10 mg/5 mL, LOQ: 50 μg/mL): >2000 µg/mL
pH ([4]; SGF, pH 1.8, 24 h): pH: 2.4
Solubility ([4]; SGF, pH 1.8, 24 h, target 10 mg/5 mL, LOQ: 50 μg/mL): >2000 µg/mL
pH ([4]; pH 1.0 (0.1N HCl), 2 h): pH: 1.0
Solubility ([4]; pH 1.0 (0.1N HCl), 2 h, target 10 mg/5 mL, LOQ: 50 μg/mL): >2000 µg/mL
pH ([4]; pH 1.0 (0.1N HCl), 24 h): pH: 1.0
Solubility ([4]; pH 1.0 (0.1N HCl), 24 h, target 10 mg/5 mL, LOQ: 50 μg/mL): >2000 µg/mL
pH ([4]; pH 4.5, 50 mM acetate buffer, 2 h): pH: 4.5
Solubility ([4]; pH 4.5, 50 mM acetate buffer, 2 h, target 10 mg/5 mL, LOQ: 50 μg/mL): 260 µg/mL (≈ 366 µM)
XRPD of residual solids [4, 8]: No form change
pH [4, 8]: pH: 4.5
Solubility ([4]; pH 4.5, 50 mM acetate buffer, 24 h, target 10 mg/5 mL, LOQ: 50 μg/mL): 120 µg/mL (≈ 169 µM)
chemical stability ([5]; 25° C./92% RH open, 40° C./75% RH open, 60° C. tight container): good chemical stability
physical stability ([5]; 25° C./92% RH, open container): agglomeration
physical stability ([5]; 40° C./75% RH, open container): physically stable
physical stability ([5]; 60° C., tight container): crystallinity decrease

CC(C)NCC(O)COc1cccc2ccccc12 (stereo not shown) [Propranolol, reference compound]
half-life at 1 µM [6]: 16.3 min

COc1cc(-c2cn(C)c(=O)c(C)c2C)cc(OC)c1CN1CC[C@H](N2CCN(c3ccc(N[C@H]4CCC(=O)NC4=O)cc3F)CC2)C(F)(F)C1 [Form P]
water uptake ([3]; 95% RH): 3.1%
water uptake ([3]; below 90% RH): 1.6%
Solubility [7]: low solubility (close to LOQ)
Solubility (physchem; pH 1, simulated gastric fluid): > 2000 µg/mL
Solubility (physchem; pH 1.8, simulated gastric fluid): > 2000 µg/mL
Solubility (physchem; pH 4.5, aqueous buffer): 100 to 300 µg/mL (≈ 141 to 422 µM)
Solubility (physchem; pH 5, fessif): 100 to 300 µg/mL (≈ 141 to 422 µM)
